In patent US10123995B2, “Factor XIa inhibitors” (MERCK SHARP & DOHME CORP., priority 2015, dated 2018) one finds IC50 data, which are given here for 20 compounds.

The target in assay [1] is purified Human plasma kallikrein (Homo sapiens (Human), UniProt P03952). The experiment in a line: Kallikrein Assay. It is filed as biochemical. To be noted: table titled Kalikrein inhibition (column head prints hFXIa), substrate Acetyl-K-P-R-AFC, pH 7.4. On the procedure:
(§1) The effectiveness of a compound of the present invention as an inhibitor of Kallikrein can be determined using a relevant purified serine protease, and an appropriate synthetic substrate. The rate of hydrolysis of the chromogenic or fluorogenic substrate by the relevant serine protease was measured both in the absence and presence of compounds of the present invention. Assays were conducted at room temperature or at 37° C. […] A decrease in the rate of fluorescence change in the presence of inhibitor is indicative of enzyme inhibition. Such methods are known to one skilled in the art. The results of this assay are expressed as the inhibitory constant, Ki.
Kallikrein determinations were made in 50 mM HEPES buffer at pH 7.4 containing 150 mM NaCl, 5 mM CaCl2, and 0.1% PEG 8000 (polyethylene glycol; Fisher Scientific). Determinations were made using purified Human plasma kallikrein at a final concentration of 0.5 nM (Enzyme Research Laboratories) and the synthetic substrate, Acetyl-K-P-R-AFC (Sigma # C6608) at a concentration of […].
Activity assays were performed by diluting a stock solution of substrate at least tenfold to a final concentration ≤0.2 Km into a solution containing enzyme or enzyme equilibrated with inhibitor. Times required to achieve equilibration between enzyme and inhibitor were determined in control experiments. The reactions were performed under linear progress curve conditions and fluorescence increase measured at 405 Ex/510 Em nm. Values were converted to percent inhibition of the control reaction (after subtracting 100% Inhibition value). IC50 was determined by inflection point from a four parameter logistic curve fit. Ki was calculated using the Cheng Prusoff equation, Ki=IC50/(1+([S]/Km)).

The target of assay [2] is purified human Factor XIa (Homo sapiens (Human), UniProt P03951). The experiment in a line: Factor XIa Assay. It is filed as biochemical. Particulars: Factor XIa inhibition; substrate Z-Gly-Pro-Arg-AFC, pH 7.4; read-out: hFXIa IC50. Here is the method:
as §1, with “Coagulation Factor XIa” for “Kallikrein”, “The results of this assay are expressed as the inhibitory constant, Ki.” left out
Factor XIa determinations were made in 50 mM HEPES buffer at pH 7.4 containing 150 mM NaCl, 5 mM CaCl2, and 0.1% PEG 8000 (polyethylene glycol; JT Baker or Fisher Scientific). Determinations were made using purified human Factor XIa at a final concentration of 40 pM (Sekisui Diagnostics) and the synthetic substrate, Z-Gly-Pro-Arg-AFC, TFA salt (Sigma #C0980) at a concentration of 100 μM.
Activity assays were performed by diluting a stock solution of substrate at least tenfold to a final concentration ≤0.1 Km into a solution containing enzyme or enzyme equilibrated with inhibitor. Times required to achieve equilibration between enzyme and inhibitor were determined in control experiments. Initial velocities of product formation in the absence (Vo) or presence of inhibitor (Vi) were measured. Assuming competitive inhibition, and that unity is negligible compared Km/[S], [I]/e, and [I]/e (where [S], [I], and e respectively represent the total concentrations, of substrate, inhibitor and enzyme), the equilibrium constant (Ki) for dissociation of the inhibitor from the enzyme can be obtained from the dependence of Vo/Vi on [I] shown in the following equation. Vo/Vi=1+[I]/Ki

SMILES strings stand for the structures.

By IC50 is commonly meant the point on the concentration scale where inhibition reaches its midpoint.

purified human Factor XIa, sequence (P03951 388-625): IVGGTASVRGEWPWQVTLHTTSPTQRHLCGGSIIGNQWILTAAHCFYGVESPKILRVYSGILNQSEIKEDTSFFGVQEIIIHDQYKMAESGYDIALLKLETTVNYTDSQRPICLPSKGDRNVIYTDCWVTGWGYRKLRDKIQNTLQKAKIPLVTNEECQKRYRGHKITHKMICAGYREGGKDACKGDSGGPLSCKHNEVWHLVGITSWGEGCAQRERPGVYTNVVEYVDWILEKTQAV
purified human Factor XIa, sequence (P03951 19-387 partner): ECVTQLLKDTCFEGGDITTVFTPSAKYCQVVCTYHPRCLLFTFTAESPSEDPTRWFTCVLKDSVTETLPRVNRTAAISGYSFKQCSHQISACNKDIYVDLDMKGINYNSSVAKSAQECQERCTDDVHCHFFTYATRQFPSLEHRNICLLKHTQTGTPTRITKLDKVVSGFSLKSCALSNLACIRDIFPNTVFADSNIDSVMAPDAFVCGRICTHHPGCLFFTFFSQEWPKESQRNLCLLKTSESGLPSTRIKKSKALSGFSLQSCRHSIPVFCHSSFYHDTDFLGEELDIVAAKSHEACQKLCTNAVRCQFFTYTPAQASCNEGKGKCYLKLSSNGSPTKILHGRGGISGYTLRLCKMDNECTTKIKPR
purified Human plasma kallikrein, sequence (P03952 391-638): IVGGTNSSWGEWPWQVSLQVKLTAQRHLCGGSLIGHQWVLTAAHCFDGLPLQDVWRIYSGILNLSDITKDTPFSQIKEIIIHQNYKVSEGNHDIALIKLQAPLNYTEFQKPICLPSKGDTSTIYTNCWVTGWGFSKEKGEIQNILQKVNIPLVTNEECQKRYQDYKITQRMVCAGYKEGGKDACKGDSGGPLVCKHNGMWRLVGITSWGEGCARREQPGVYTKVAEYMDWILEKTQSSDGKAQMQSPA
purified Human plasma kallikrein, sequence (P03952 20-390 partner): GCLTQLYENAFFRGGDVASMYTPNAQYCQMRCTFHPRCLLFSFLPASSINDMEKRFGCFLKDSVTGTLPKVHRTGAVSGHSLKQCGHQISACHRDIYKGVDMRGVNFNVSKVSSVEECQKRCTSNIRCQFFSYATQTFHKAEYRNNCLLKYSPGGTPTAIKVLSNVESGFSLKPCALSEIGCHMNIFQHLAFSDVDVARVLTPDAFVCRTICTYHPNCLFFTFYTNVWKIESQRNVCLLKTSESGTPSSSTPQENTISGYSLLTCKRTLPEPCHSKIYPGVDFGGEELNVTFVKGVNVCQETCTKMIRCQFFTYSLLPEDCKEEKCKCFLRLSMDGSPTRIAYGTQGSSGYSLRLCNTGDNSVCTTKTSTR

Consider `O=C(O)c1ccc(NC(=O)C2CC(O)c3cc(-c4cc(Cl)ccc4-n4cnnn4)c[n+]([O-])c32)cc1` (racemic) [Example 6, 4-[({3-[5-chloro-2-(1H-tetrazol-1-yl)phenyl]-5-hydroxy-1-oxido-6,7-dihydro-5H-cyclopenta[b]pyridin-7-yl}carbonyl)amino]benzoic acid], for which the IC50 in assay [1] came to 700 nM; in assay [2], 10.5 nM.
As to `O=C(O)c1ccc(NC(=O)C2CC(O)c3cc(-c4cc(Cl)ccc4-n4cnnn4)c[n+]([O-])c32)cc1` (single isomer, unassigned) [Example 5], the IC50 is 504 nM in assay [1] and 3.6 nM in assay [2].
Taken in the same sequence, the figures for `O=C(O)c1ccc(NC(=O)C2CC(O)c3cc(-c4cc(Cl)ccc4-n4cnnn4)c[n+]([O-])c32)cc1` (single isomer, unassigned) [Example 7] were 1720 nM and 8.6 nM.
As to `O=C(O)c1ccc(NC(=O)C2(O)CC(O)c3cc(-c4cc(Cl)ccc4-n4cnnn4)c[n+]([O-])c32)cc1` (single isomer, unassigned) [Example 9, 4-[({3-[5-Chloro-2-(1H-tetrazol-1-yl)phenyl]-5,7-dihydroxy-1-oxido-6,7-dihydro-5H-cyclopenta[b]pyridin-7-yl}carbonyl)amino]benzoic acid], the values for the IC50 in assay [1] and in assay [2] were 460 nM and 2.9 nM, respectively.
`O=C(O)c1ccc(NC(=O)C2(O)CC(O)c3cc(-c4cc(Cl)ccc4-n4cnnn4)c[n+]([O-])c32)cc1` (single isomer, unassigned) [Example 10, 4-[({3-[5-Chloro-2-(1H-tetrazol-1-yl)phenyl]-5,7-dihydroxy-1-oxido-6,7-dihydro-5H-cyclopenta[b]pyridin-7-yl}carbonyl)amino]benzoic acid]: the IC50 in assay [1] was 530 nM; in assay [2], 2.7 nM.
As for `O=C(O)c1ccc(NC(=O)C2(O)CC(O)c3cc(-c4cc(Cl)ccc4-n4cnnn4)c[n+]([O-])c32)cc1` (single isomer, unassigned) [Example 11, 4-[({3-[5-Chloro-2-(1H-tetrazol-1-yl)phenyl]-5,7-dihydroxy-1-oxido-6,7-dihydro-5H-cyclopenta[b]pyridin-7-yl}carbonyl)amino]benzoic acid], the IC50 in assay [2] was found to be 104 nM.
Consider `O=C(O)c1ccc(NC(=O)C2(O)CC(O)c3cc(-c4cc(Cl)ccc4-n4cnnn4)c[n+]([O-])c32)cc1` (single isomer, unassigned) [Example 12, 4-[({3-[5-Chloro-2-(1H-tetrazol-1-yl)phenyl]-5,7-dihydroxy-1-oxido-6,7-dihydro-5H-cyclopenta[b]pyridin-7-yl}carbonyl)amino]benzoic acid], for which the IC50 in assay [2] was 202 nM.
Take `O=C(O)c1ccc(NC(=O)C2(O)CC(F)c3cc(-c4cc(Cl)ccc4-n4cnnn4)c[n+]([O-])c32)cc1` (single isomer, unassigned) [Example 13, 4-[({3-[5-Chloro-2-(1H-tetrazol-1-yl)phenyl]-5-fluoro-7-hydroxy-1-oxido-6,7-dihydro-5H-cyclopenta[b]pyridin-7-yl}carbonyl)amino]benzoic acid]: the IC50 was determined as 202 nM in assay [1] and 3.7 nM in assay [2].
On to `O=C(O)c1ccc(NC(=O)C2(O)CC(F)c3cc(-c4cc(Cl)ccc4-n4cnnn4)c[n+]([O-])c32)cc1` (single isomer, unassigned) [Example 14, 4-[({3-[5-Chloro-2-(1H-tetrazol-1-yl)phenyl]-5-fluoro-7-hydroxy-1-oxido-6,7-dihydro-5H-cyclopenta[b]pyridin-7-yl}carbonyl)amino]benzoic acid], for which the IC50 in assay [2] was found to be 219 nM.
Regarding `O=C(O)c1ccc(NC(=O)C2(F)CC(F)c3cc(-c4cc(Cl)ccc4-n4cnnn4)c[n+]([O-])c32)cc1` (single isomer, unassigned) [Example 15, 4-[({3-[5-Chloro-2-(1H-tetrazol-1-yl)phenyl]-5,7-difluoro-1-oxido-6,7-dihydro-5H-cyclopenta[b]pyridin-7-yl}carbonyl)amino]benzoic acid], the half-maximal inhibitory concentration (IC50) in assay [1] came out at 4920 nM; in assay [2], 14.1 nM.
`O=C(O)c1ccc(NC(=O)C2(F)CC(F)c3cc(-c4cc(Cl)ccc4-n4cnnn4)c[n+]([O-])c32)cc1` (single isomer, unassigned) [Example 16, 4-[({3-[5-Chloro-2-(1H-tetrazol-1-yl)phenyl]-5,7-difluoro-1-oxido-6,7-dihydro-5H-cyclopenta[b]pyridin-7-yl}carbonyl)amino]benzoic acid]: the concentration for half-maximal inhibition (IC50) in assay [2] came out at 85.6 nM.
Regarding `O=C(O)c1ccc(NC(=O)C2(F)CC(F)c3cc(-c4cc(Cl)ccc4-n4cnnn4)c[n+]([O-])c32)cc1` (single isomer, unassigned) [Example 17, 4-[({3-[5-Chloro-2-(1H-tetrazol-1-yl)phenyl]-5,7-difluoro-1-oxido-6,7-dihydro-5H-cyclopenta[b]pyridin-7-yl}carbonyl)amino]benzoic acid], the IC50 in assay [2] was found to be 4440 nM.
Consider `O=C(O)c1ccc(NC(=O)C2(F)CC(F)c3cc(-c4cc(Cl)ccc4-n4cnnn4)c[n+]([O-])c32)cc1` (single isomer, unassigned) [Example 18, 4-[({3-[5-Chloro-2-(1H-tetrazol-1-yl)phenyl]-5,7-difluoro-1-oxido-6,7-dihydro-5H-cyclopenta[b]pyridin-7-yl}carbonyl)amino]benzoic acid], for which, in assay [2], the IC50 worked out at 9450 nM.
As to `O=C(O)c1ccc(NC(=O)C2(CC3CC3)CCc3cc(-c4cc(Cl)ccc4-n4cnnn4)c[n+]([O-])c32)cc1` (single isomer, unassigned) [Example 21, 7-((4-carboxyphenyl)carbamoyl)-3-(5-chloro-2-(1H-tetrazol-1-yl)phenyl)-7-(cyclopropylmethyl)-6,7-dihydro-5H-cyclopenta[b]pyridine 1-oxide], the IC50 in assay [2] is > 870 nM.
For `O=C(O)c1ccc(NC(=O)C2(CC3CC3)CCc3cc(-c4cc(Cl)ccc4-n4cnnn4)c[n+]([O-])c32)cc1` (single isomer, unassigned) [Example 22, 7-((4-carboxyphenyl)carbamoyl)-3-(5-chloro-2-(1H-tetrazol-1-yl)phenyl)-7-(cyclopropylmethyl)-6,7-dihydro-5H-cyclopenta[b]pyridine 1-oxide], the IC50 in assay [2] came out at 178 nM.
Take `O=C(O)c1ccc(NC(=O)C2CCc3cc(-c4cc(Cl)ccc4-n4cnnn4)c[n+]([O-])c32)cc1` (stereo not shown) [Example 1, 4-[({3-[5-chloro-2-(1H-tetrazol-1-yl)phenyl]-1-oxido-6,7-dihydro-5H-cyclopenta[b]pyridin-7-yl}carbonyl)amino]benzoic acid]: the IC50 in assay [1] worked out at 473 nM; in assay [2], 3.8 nM.
On to `O=C(NC12CCC(C(=O)O)(CC1)CC2)C1CCc2cc(-c3cc(Cl)ccc3-n3cnnn3)c[n+]([O-])c21` (stereo not shown) [Example 2, 7-((4-carboxybicyclo[2.2.2]octan-1-yl)carbamoyl)-3-(5-chloro-2-(1H-tetrazol-1-yl)phenyl)-6,7-dihydro-5H-cyclopenta[b]pyridine=1-oxide], for which the IC50 in assay [2] came to 2000 nM.
On the same count and under the same terms, to `O=C(O)c1ccc(NC(=O)[C@H]2CCc3cc(-c4c(F)ccc(Cl)c4F)c[n+]([O-])c32)cc1` [Example 3, 4-({[(7S)-3-(3-chloro-2,6-difluorophenyl)-1-oxido-6,7-dihydro-5H-cyclopenta[b]pyridin-b7-yl]carbonyl}amino)benzoic acid] belongs 2920 nM.
For `O=C(O)c1ccc(NC(=O)[C@@H]2CCc3cc(-c4c(F)ccc(Cl)c4F)c[n+]([O-])c32)cc1` [Example 4, 4-({[(7R)-3-(3-chloro-2,6-difluorophenyl)-1-oxido-6,7-dihydro-5H-cyclopenta[b]pyridin-7-yl]carbonyl}amino)benzoic acid], the IC50 in assay [2] was found to be 2370 nM.
With `COC(=O)Nc1ccc(C(=O)NC2CCc3cc(-c4cc(Cl)ccc4-n4cnnn4)c[n+]([O-])c32)cc1` (stereo not shown) [Example 20, 3-(5-Chloro-2-(H-tetrazol-1-yl)phenyl)-7-(4-((methoxycarbonyl)amino)benzamido)-6,7-dihydro-5H-cyclopenta[b]pyridine 1-oxide], the IC50 in assay [2] was 894 nM.
